Columns and labels:
[1] = test system: TMD-8 cells; experiment: Cell proliferation assay (CellTiter-Glo), TMD-8 cells; format: cell-based; conditions: Homo sapiens, TMD8, 120 h, 5-day treatment, read-out: TMD8 cell growth (GI50 μM)
Description: Cell proliferation assay: TMD-8 and SU-DHL-1 cells were maintained at 37° C. in a humidified atmosphere with 5% CO2 in the recommended medium and serum concentrations. For cell proliferation assay, cells were seeded in 96-well pates at a density of 5,000 to 10,000 cells per well and cultured overnight at 37° C. in recommended medium supplemented with 5-10% FBS. On the next day, the test articles at various concentrations or vehicle control (0.5% DMSO) were added into cell culture. After 5-day treatment, the growth of cells was assayed by the CellTiter-Glo® Luminestceaent Cell Viability Assay (Promega). IC50 values were calculated using GraphPad Prism by plotting the logarithm of the concentration versus percent inhibition of cell growth as compared with the vehicle control.

[2] = target: T1, Btk (Homo sapiens, UniProt Q06187); experiment: Btk kinase assay (ADP-Glo); format: biochemical; conditions: ADP-Glo Btk kinase assay kit; ATP 1.2 μM; 60 minutes at room temperature
T1 construct: purchased Promega (Madison, Wis.)
Description: Btk kinase assay—The Btk kinase assay was performed using a ADP-Glo Btk kinase assay kit purchased from Promega (Madison, Wis.). The assay was conducted according to the protocols provided in the assay kit. In brief, the enzyme reaction was carried out in the kinase reaction buffer containing Btk (2 ng/μl), ATP (1.2 μM), poly GT peptide (0.3 μM), DTT (40 nM), MnCl2 (1.4 mM), and 1 xkinase buffer (included in the kit) in the presence or absence of the tested articles at various concentrations in 384-well plate at room temperature (22±1° C.) for 60 minutes. The final reaction volume for each reaction was 10 μl. Then, 4 μl of ADP-Glo reagent (included in the kit) was added into the reaction and the plate was further incubated for another 40 minutes to terminate the reaction and deplete the remaining ATP. Finally, 10 μl of the kinase detection reagent was added into each reaction to simultaneously convert ADP to ATP and allow the newly synthesized ATP to be measured by a plate-reading luminometer (Victor X5 2030 multilabel reader, PerkinElmer). IC50 value was calculated using appropriate programs in GraphPad Prism by plotting the logarithm of the concentration versus percent inhibition as compared with a vehicle (DMSO) control.

T1 sequence (Q06187 whole entry): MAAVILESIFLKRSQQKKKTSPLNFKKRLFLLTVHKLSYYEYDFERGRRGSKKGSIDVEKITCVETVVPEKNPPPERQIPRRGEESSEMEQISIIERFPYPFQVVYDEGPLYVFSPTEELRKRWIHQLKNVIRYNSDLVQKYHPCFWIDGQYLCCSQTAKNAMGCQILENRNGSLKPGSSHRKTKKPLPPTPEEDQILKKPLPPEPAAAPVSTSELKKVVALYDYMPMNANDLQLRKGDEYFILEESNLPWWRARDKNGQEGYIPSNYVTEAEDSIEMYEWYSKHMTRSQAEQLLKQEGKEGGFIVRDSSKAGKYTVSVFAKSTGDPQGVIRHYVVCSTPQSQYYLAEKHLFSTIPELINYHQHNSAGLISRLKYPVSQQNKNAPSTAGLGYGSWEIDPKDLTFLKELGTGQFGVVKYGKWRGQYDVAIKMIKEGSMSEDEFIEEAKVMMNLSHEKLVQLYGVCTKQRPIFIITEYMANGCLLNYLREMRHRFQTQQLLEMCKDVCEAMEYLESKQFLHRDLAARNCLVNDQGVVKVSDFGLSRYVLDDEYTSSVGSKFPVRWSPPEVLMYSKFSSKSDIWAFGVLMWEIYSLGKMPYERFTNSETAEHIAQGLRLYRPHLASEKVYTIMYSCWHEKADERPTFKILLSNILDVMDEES

IC50 [2] | Compound | GI50 [1]
109 nM | C=CC(=O)N1CCN(c2ncnc3[nH]c(C#CCOc4ccccc4)cc23)CC1 [Example 1, 1-(4-(6-(3-phenoxyprop-1-yn-1-yl)-7H-pyrrolo[2,3-d]pyrimidin-4-yl)piperazin-1-yl)prop-2-en-1-one] | 0.054 µM
3.3 nM | CN(C)C/C=C/C(=O)N1CCN(c2ncnc3[nH]c(C#CCOc4ccccc4)cc23)CC1 [Example 2, (E)-4-(dimethylamino)-1-(4-(6-(3-phenoxyprop-1-yn-1-yl)-7H-pyrrolo[2,3-d]pyrimidin-4-yl)piperazin-1-yl)but-2-en-1-one] | 0.034 µM
2.3 nM | CNC/C=C/C(=O)N1CCN(c2ncnc3[nH]c(C#CCOc4ccccc4)cc23)CC1 [Example 3, (E)-4-(methylamino)-1-(4-(6-(3-phenoxyprop-1-yn-1-yl)-7H-pyrrolo[2,3-d]pyrimidin-4-yl)piperazin-1-yl)but-2-en-1-one] | 2.9 µM
60 nM | C=CC(=O)N1CCN(c2ncnc3[nH]c(C#CCOCc4ccccc4)cc23)CC1 [Example 4, 1-(4-(6-(3-(benzyloxy)prop-1-yn-1-yl)-7H-pyrrolo[2,3-d]pyrimidin-4-yl)piperazin-1-yl)prop-2-en-1-one] | 0.157 µM
257 nM | C=CC(=O)N1CCN(c2ncnc3[nH]c(C#CCOC)cc23)CC1 [Example 5, 1-(4-(6-(3-methoxyprop-1-yn-1-yl)-7H-pyrrolo[2,3-d]pyrimidin-4-yl)piperazin-1-yl)prop-2-en-1-one] | 1.66 µM
16.4 nM | C=CC(=O)N1CCN(c2ncnc3[nH]c(C#CCOc4ccccc4)nc23)CC1 [Example 6, 1-(4-(8-(3-phenoxyprop-1-yn-1-yl)-9H-purin-6-yl)piperazin-1-yl)prop-2-en-1-one] | 0.019 µM
3 nM | CN(C)C/C=C/C(=O)N1CCN(c2ncnc3[nH]c(C#CCOc4ccccc4)nc23)CC1 [Example 7, (E)-4-(dimethylamino)-1-(4-(8-(3-phenoxyprop-1-yn-1-yl)-9H-purin-6-yl)piperazin-1-yl)but-2-en-1-one] | 0.141 µM
332 nM | O=C(/C=C/CN1CCOCC1)N1CCN(c2ncnc3[nH]c(C#CCOc4ccccc4)nc23)CC1 [Example 8, (E)-4-morpholino-1-(4-(8-(3-phenoxyprop-1-yn-1-yl)-9H-purin-6-yl)piperazin-1-yl)but-2-en-1-one] | 0.357 µM
2.6 nM | C=CC(=O)N1CCC(Nc2ncnc3[nH]c(C#CCOc4ccccc4)nc23)C1 (stereo not shown) [Example 9, 1-(3-((8-(3-phenoxyprop-1-yn-1-yl)-9H-purin-6-yl)amino)pyrrolidin-1-yl)prop-2-en-1-one] | 0.012 µM
0.1 nM | CN(C)C/C=C/C(=O)N1CCC(Nc2ncnc3[nH]c(C#CCOc4ccccc4)nc23)C1 (stereo not shown) [Example 10, (E)-4-(dimethylamino)-1-(3-((8-(3-phenoxyprop-1-yn-1-yl)-9H-purin-6-yl)amino)pyrrolidin-1-yl)but-2-en-1-one] | 0.171 µM
60 nM | O=C(/C=C/CN1CCOCC1)N1CCC(Nc2ncnc3[nH]c(C#CCOc4ccccc4)nc23)C1 (stereo not shown) [Example 11, (E)-4-morpholino-1-(3-((8-(3-phenoxyprop-1-yn-1-yl)-9H-purin-6-yl)amino)pyrrolidin-1-yl)but-2-en-1-one] | 1.17 µM
0.3 nM | O=C(/C=C/CN1CCCC1)N1CCC(Nc2ncnc3[nH]c(C#CCOc4ccccc4)nc23)C1 (stereo not shown) [Example 12, (E)-1-(3-((8-(3-phenoxyprop-1-yn-1-yl)-9H-purin-6-yl)amino)pyrrolidin-1-yl)-4-(pyrrolidin-1-yl)but-2-en-1-one] | 1.3 µM
1.9 nM | C=CC(=O)N1CCC(Nc2ncnc3[nH]c(C#CCOc4cccc(Cl)c4)nc23)C1 (stereo not shown) [Example 13, 1-(3-((8-(3-(3-chlorophenoxy)prop-1-yn-1-yl)-9H-purin-6-yl)amino)pyrrolidin-1-yl)prop-2-en-1-one] | 0.019 µM
15 nM | C=CC(=O)N1CCC(Nc2ncnc3[nH]c(C#CCOc4ccc(F)c(F)c4)nc23)C1 (stereo not shown) [Example 14, 1-(3-((8-(3-(3,4-difluorophenoxy)prop-1-yn-1-yl)-9H-purin-6-yl)amino)pyrrolidin-1-yl)prop-2-en-1-one] | 0.134 µM
14.8 nM | C=CC(=O)N1CCC(Nc2ncnc3[nH]c(C#CCOc4cccc(F)c4)nc23)C1 (stereo not shown) [Example 15, 1-(3-((8-(3-(3-fluorophenoxy)prop-1-yn-1-yl)-9H-purin-6-yl)amino)pyrrolidin-1-yl)prop-2-en-1-one] | 0.019 µM
0.6 nM | C=CC(=O)N1CCC(Nc2ncnc3[nH]c(C#CCOc4ccccc4F)nc23)C1 (stereo not shown) [Example 16, 1-(3-((8-(3-(2-fluorophenoxy)prop-1-yn-1-yl)-9H-purin-6-yl)amino)pyrrolidin-1-yl)prop-2-en-1-one] | 0.003 µM
212 nM | C=CC(=O)N1CCC(Nc2ncnc3[nH]c(C#CCOc4cc(F)cc(F)c4)nc23)C1 (stereo not shown) [Example 17, 1-(3-((8-(3-(3,5-difluorophenoxy)prop-1-yn-1-yl)-9H-purin-6-yl)amino)pyrrolidin-1-yl)prop-2-en-1-one] | 0.25 µM
0.02 nM | C=CC(=O)N1CCC(Nc2ncnc3[nH]c(C#CCOc4ccccc4Cl)nc23)C1 (stereo not shown) [Example 18, 1-(3-((8-(3-(2-chlorophenoxy)prop-1-yn-1-yl)-9H-purin-6-yl)amino)pyrrolidin-1-yl)prop-2-en-1-one] | 0.002 µM
22 nM | C=CC(=O)N1CCC(Nc2ncnc3[nH]c(C#CCOc4ccc(Cl)cc4)nc23)C1 (stereo not shown) [Example 19, 1-(3-((8-(3-(4-chlorophenoxy)prop-1-yn-1-yl)-9H-purin-6-yl)amino)pyrrolidin-1-yl)prop-2-en-1-one] | 0.148 µM
0.5 nM | C=CC(=O)N1CCC(Nc2ncnc3[nH]c(C#CCOc4ccc(F)cc4)nc23)C1 (stereo not shown) [Example 20, 1-(3-((8-(3-(4-fluorophenoxy)prop-1-yn-1-yl)-9H-purin-6-yl)amino)pyrrolidin-1-yl)prop-2-en-1-one] | 0.051 µM
4 nM | CN(C)C/C=C/C(=O)N1CCC(Nc2ncnc3[nH]c(C#CCOc4ccc(Cl)cc4)nc23)C1 (stereo not shown) [Example 21, (E)-1-(3-((8-(3-(4-chlorophenoxy)prop-1-yn-1-yl)-9H-purin-6-yl)amino)pyrrolidin-1-yl)-4-(dimethylamino)but-2-en-1-one] | 1.8 µM
0.02 nM | CN(C)C/C=C/C(=O)N1CCC(Nc2ncnc3[nH]c(C#CCOc4ccc(F)cc4)nc23)C1 (stereo not shown) [Example 22, (E)-1-(3-((8-(3-(4-fluorophenoxy)prop-1-yn-1-yl)-9H-purin-6-yl)amino)pyrrolidin-1-yl)-4-(dimethylamino)but-2-en-1-one] | 1 µM
1.5 nM | CN(C)C/C=C/C(=O)N1CCC(Nc2ncnc3[nH]c(C#CCOc4ccccc4F)nc23)C1 (stereo not shown) [Example 23, (E)-1-(3-((8-(3-(2-fluorophenoxy)prop-1-yn-1-yl)-9H-purin-6-yl)amino)pyrrolidin-1-yl)-4-(dimethylamino)but-2-en-1-one] | 0.107 µM
1 nM | C=CC(=O)N1CCC(Nc2ncnc3[nH]c(C#CCOc4ccc(F)cc4F)nc23)C1 (stereo not shown) [Example 24, 1-(3-((8-(3-(2,4-difluorophenoxy)prop-1-yn-1-yl)-9H-purin-6-yl)amino)pyrrolidin-1-yl)prop-2-en-1-one] | 0.01 µM
1 nM | C=CC(=O)N1CCC(Nc2ncnc3[nH]c(C#CCOc4ccccc4OC)nc23)C1 (stereo not shown) [Example 25, 1-(3-((8-(3-(2-methoxyphenoxy)prop-1-yn-1-yl)-9H-purin-6-yl)amino)pyrrolidin-1-yl)prop-2-en-1-one] | 0.006 µM
6.5 nM | C=CC(=O)N1CCC(Nc2ncnc3[nH]c(C#CCOc4cccc(OC)c4)nc23)C1 (stereo not shown) [Example 26, 1-(3-((8-(3-(3-methoxyphenoxy)prop-1-yn-1-yl)-9H-purin-6-yl)amino)pyrrolidin-1-yl)prop-2-en-1-one] | 0.247 µM
16 nM | C=CC(=O)N1CCC(Nc2ncnc3[nH]c(C#CCOc4ccc(OC)cc4)nc23)C1 (stereo not shown) [Example 27, 1-(3-((8-(3-(4-methoxyphenoxy)prop-1-yn-1-yl)-9H-purin-6-yl)amino)pyrrolidin-1-yl)prop-2-en-1-one] | 0.094 µM
1180 nM | O=C(/C=C/c1cccs1)N1CCC(Nc2ncnc3[nH]c(C#CCOc4ccccc4)cc23)C1 (stereo not shown) [Example 37, (E)-1-(3-((6-(3-phenoxyprop-1-yn-1-yl)-7H-pyrrolo[2,3-d]pyrimidin-4-yl)amino)pyrrolidin-1-yl)-3-(thiophen-2-yl)prop-2-en-1-one] | 
